Data from article PMC6437269, “OXA-48-Mediated Ceftazidime-Avibactam Resistance Is Associated with Evolutionary Trade-Offs” (mSphere, 2019).
≈ marks a conversion by molar mass, not a printed value. Like-named read-outs stand apart in the source and are kept apart here.

Tests used:
E. coli MG1655 (MP100) = assay: microbe, parasite or virus in culture; type: cell-based, Escherichia coli
Description: (§1) For MIC determination, single colonies were suspended in 0.9% saline buffer to a 0.5 McFarland standard and further diluted 1:100 in MH broth. Fifty microliters of the bacterial suspension was loaded onto in-house-designed and premade Sensititre microtiter plates (TREK Diagnostic Systems/Thermo Fisher Scientific, East Grinstead, United Kingdom). The plates were incubated for 20 h at 37°C. Antibiotic susceptibility testing was performed in duplicates.

[1] = tested on: MP101 (MP100 transformed with p50579417_3_OXA-48); assay: MIC determination, MP101 (MG1655 with native OXA-48 plasmid); type: cell-based, Escherichia coli
Excerpt: Mueller-Hinton (MH) agar and broth were purchased from Thermo Fisher Scientific (East Grinstead, United Kingdom). Luria-Bertani (LB) broth, LB agar, ampicillin, amoxicillin, cefepime, CAZ, imipenem, meropenem, piperacillin, and tazobactam were obtained from Sigma-Aldrich (St. Louis, MO). Nitrocefin was purchased from Merck (Darmstadt, Germany). The characteristics of the clinical E. coli strain 50579417 harboring the OXA-48 plasmid (p50579417_3_OXA-48) have been described previously ([61], [62]). The plasmid p50579417_3_OXA-48 was conjugated into rifampin-resistant E. coli TOP10 and subsequently isolated using a plasmid mini-purification kit (Qiagen, Germany). E. coli MG1655 (DA4201) was electroporated with p50579417_3_OXA-48 as published previously ([63]). Transformants positive for blaOXA-48 were checked by PCR using REDTaq ready mix (Sigma-Aldrich, St. Louis, MO) and preOXA-48 primers ([61]).
as §1

[2] = tested on: MP102 (MP101 subjected to CAZ); assay: MIC determination, MP102 (MP101 selected on CAZ); type: cell-based, Escherichia coli
Description: (§2) Ten milliliters of an MP101 culture was grown in MH broth at 37°C overnight and then centrifuged for 10 min at 4,000 × g, and the pellet was suspended in 1 ml MH broth. One hundred microliters was plated on MH agar containing increasing concentrations of either CAZ alone or in combination with AVI up to 2 mg/liter. For CAZ-AVI, we utilized the clinical ratio of 4:1, respectively. Colonies growing on the highest concentration were recovered and grown in a fresh overnight culture (MH broth) and subsequently plated on concentrations of CAZ or CAZ-AVI up to 32 mg/liter.
as §1

[3] = tested on: MP103 (MP101 subjected to CAZ-AVI); assay: MIC determination, MP103 (MP101 selected on CAZ-AVI); type: cell-based, Escherichia coli
Description: as §2, §1

E. coli TOP10 = assay: microbe, parasite or virus in culture; type: cell-based; settings: Escherichia coli
Description: as §1

[4] = tested on: MP104 (E. coli TOP10 expressing native OXA-48); assay: MIC determination, TOP10 expressing native OXA-48 (MP104); type: cell-based; settings: Escherichia coli; Table 3; MP104, native OXA-48 in pCR-blunt II TOPO
Description: as §1
For a functional resistance profile, the native and mutated blaOXA-48 genes were cloned in the pCR-blunt II-TOPO vector (Invitrogen, CA) and expressed in E. coli TOP10 (Invitrogen, CA). The PCR product was obtained by Phusion High Fidelity PCR mastermix with High Fidelity buffer (New England Biolabs, MA) and preOXA-48 primers ([61]). Transformants were selected on LB agar plates containing 50 or 100 mg/liter ampicillin. Insertion size was verified by Sanger sequencing using M13 forward (5′-[…]-3′) and reverse (5′-[…]-3′) primers.

[5] = tested on: MP105 (E. coli TOP10 expressing OXA-48:P68A); assay: microbe, parasite or virus in culture; type: cell-based; settings: for MIC: Escherichia coli, Table 3, MP105, OXA-48:P68A in pCR-blunt II TOPO
[6] = tested on: MP107 (MP100 transformed with p50579417_3_OXA-48-CAZ); assay: MIC determination, MP107 (MG1655 with CAZ-adapted plasmid); type: cell-based; settings: Escherichia coli; Table 6; MP107, adapted plasmid p50579417-OXA-48-CAZ
Description: as §1

[7] = tested on: MP108 (MP100 transformed with p50579417_3_OXA-48-CAZ-AVI); assay: MIC determination, MP108 (MG1655 with CAZ-AVI-adapted plasmid); type: cell-based; settings: Escherichia coli; Table 6; MP108, adapted plasmid p50579417-OXA-48-CAZ-AVI
Description: as §1

OXA-48:P68A = OXA-48:P68A (Klebsiella pneumoniae, UniProt Q6XEC0, P68A); assay: Steady-state enzyme kinetics, OXA-48:P68A; type: biochemical; settings: for Km / kcat: substrate hydrolysis, 25°C, pH 7.0, error = 95% CI
Chain of OXA-48:P68A (Q6XEC0 23-265 P68A): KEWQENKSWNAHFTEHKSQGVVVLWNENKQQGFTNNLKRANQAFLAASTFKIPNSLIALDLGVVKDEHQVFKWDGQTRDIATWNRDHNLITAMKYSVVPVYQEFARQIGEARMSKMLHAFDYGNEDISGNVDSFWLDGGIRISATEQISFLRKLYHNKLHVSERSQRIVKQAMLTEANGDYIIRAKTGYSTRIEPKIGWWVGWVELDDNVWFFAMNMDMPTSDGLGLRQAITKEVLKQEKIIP

[8] = Escherichia coli, MG1655, Table 6, MP100, read-out: MIC
[9] = Escherichia coli, Table 6, MP101, native plasmid, read-out: MIC

SMILES	MIC (E. coli TOP10; Table 3, read-out: MIC) [µg/mL]	MIC [4] [µg/mL]	MIC [5] [µg/mL]	MIC [6] [µg/mL]	MIC [7] [µg/mL]	Km (OXA-48:P68A) [µM]	kcat (OXA-48:P68A)	MIC (E. coli MG1655 (MP100); [8]) [µg/mL]	MIC [1, 9] [µg/mL]	other results
CC(C)(O/N=C(\C(=O)N[C@@H]1C(=O)N2C(C(=O)[O-])=C(C[n+]3ccccc3)CS[C@H]12)c1csc(N)n1)C(=O)O [CAZ, ceftazidime]	1 (≈ 1.83 µM)	0.5 (≈ 0.915 µM)	16 (≈ 29.3 µM)	16 (≈ 29.3 µM)	32 (≈ 58.5 µM)	220 ± 50	26 ± 3 s⁻¹	–	–	MIC (E. coli MG1655 (MP100); Escherichia coli, MG1655, Table 2, strain MP100, duplicates, read-out: MIC): 0.25 µg/mL (≈ 0.457 µM); MIC (E. coli MG1655 (MP100); Table 6, MP100): 0.25 µg/mL (≈ 0.457 µM); MIC ([1]; Escherichia coli, Table 2, strain MP101, duplicates, read-out: MIC): 0.25 µg/mL (≈ 0.457 µM); MIC ([1]; Table 6, MP101, native plasmid): 0.25 µg/mL (≈ 0.457 µM); MIC ([2]; Escherichia coli, Table 2, strain MP102, after two-step CAZ selection): 32 µg/mL; MIC increase after CAZ selection ([2]; MP102 versus MP101): 128 fold; MIC ([3]; Escherichia coli, Table 2, strain MP103, after two-step CAZ-AVI selection): 32 µg/mL; MIC increase after CAZ-AVI selection ([3]; MP103 versus MP101): 128 fold; MIC increase by P68A substitution ([5]; MP105 versus native OXA-48 (MP104)): 32 fold; increased catalytic efficiency (kcat/Km) (OXA-48:P68A; P68A compared to native OXA-48): > 10 fold
C[C@@H](O)[C@H]1C(=O)N2C(C(=O)O)=C(S[C@@H]3CN[C@H](C(=O)Nc4cccc(C(=O)O)c4)C3)[C@H](C)[C@H]12 [ETP, ertapenem]	0.015 (≈ 0.0315 µM)	1 (≈ 2.1 µM)	0.06 (≈ 0.126 µM)	0.25 (≈ 0.526 µM)	0.12 (≈ 0.252 µM)	–	–	0.015 (≈ 0.0315 µM)	1 (≈ 2.1 µM)	–
C[C@@H](O)[C@H]1C(=O)N2C(C(=O)O)=C(SCCN=CN)C[C@H]12 [IMI, imipenem]	–	1 (≈ 3.34 µM)	0.25 (≈ 0.835 µM)	0.25 (≈ 0.835 µM)	0.25 (≈ 0.835 µM)	4.2 ± 0.9	0.80 ± 0.04 s⁻¹	–	1 (≈ 3.34 µM)	MIC (E. coli MG1655 (MP100); Escherichia coli, MG1655): 0.12 µg/mL (≈ 0.401 µM); MIC (E. coli TOP10): 0.25 µg/mL (≈ 0.835 µM)
C[C@@H](O)[C@H]1C(=O)N2C(C(=O)O)=C(S[C@@H]3CN[C@H](C(=O)N(C)C)C3)[C@H](C)[C@H]12 [MEM, meropenem]	0.03 (≈ 0.0782 µM)	0.25 (≈ 0.652 µM)	0.03 (≈ 0.0782 µM)	0.06 (≈ 0.156 µM)	0.06 (≈ 0.156 µM)	3 ± 1	(8 ± 0.8) × 10^−4 s^−1	0.03 (≈ 0.0782 µM)	0.25 (≈ 0.652 µM)	–
O=C(Cc1cccs1)N[C@@H]1C(=O)N2C(C(=O)O)=C(/C=C/c3ccc([N+](=O)[O-])cc3[N+](=O)[O-])CS[C@H]12 [NIT, nitrocefin]	–	–	–	–	–	–	37 ± 2 s⁻¹	–	–	Km (OXA-48:P68A; read-out: Km): 53 ± 8 µM
CO/N=C(\C(=O)N[C@@H]1C(=O)N2C(C(=O)[O-])=C(C[N+]3(C)CCCC3)CS[C@H]12)c1csc(N)n1 [FEP, cefepime]	0.06 (≈ 0.125 µM)	0.12 (≈ 0.25 µM)	0.25 (≈ 0.52 µM)	0.5 (≈ 1.04 µM)	0.25 (≈ 0.52 µM)	462 ± 126	0.5 ± 0.1 s⁻¹	0.06 (≈ 0.125 µM)	0.25 (≈ 0.52 µM)	–
CCN1CCN(C(=O)N[C@@H](C(=O)N[C@@H]2C(=O)N3[C@@H]2SC(C)(C)[C@@H]3C(=O)O)c2ccccc2)C(=O)C1=O [PIP, piperacillin]	–	–	–	–	–	–	–	–	–	Km (OXA-48:P68A; read-out: Km): 290 ± 67 µM
